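A five-concentration, 48-hour dose response in 96-well plates underlies each endpoint, interpolated linearly between surrounding concentrations. GI50 = concentration required for 50% inhibition of growth. TGI: total growth inhibition.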
What was measured:
Assay in all cases: NCI-60 cell line screen, 48 h
EKVX NSCLC = system: EKVX NSCLC
SK-MEL-28 melanoma = system: SK-MEL-28 melanoma
HOP-62 NSCLC = system: HOP-62 NSCLC
SF-268 CNS = system: SF-268 CNS
SN12C renal = system: SN12C renal
UACC-62 melanoma = system: UACC-62 melanoma
U251 CNS = system: U251 CNS
HOP-92 NSCLC = system: HOP-92 NSCLC
OVCAR-3 ovarian = system: OVCAR-3 ovarian
A549 NSCLC = system: A549 NSCLC
ACHN renal = system: ACHN renal
MDA-MB-231 breast = system: MDA-MB-231 breast
MDA-MB-435 = system: MDA-MB-435
786-0 renal = system: 786-0 renal
PC-3 prostate = system: PC-3 prostate
SR leukemia = system: SR leukemia
K-562 leukemia = system: K-562 leukemia
COLO 205 colon = system: COLO 205 colon
LOX IMVI melanoma = system: LOX IMVI melanoma
MCF7 breast = system: MCF7 breast
HCT-116 colon = system: HCT-116 colon
SK-OV-3 ovarian = system: SK-OV-3 ovarian
OVCAR-5 ovarian = system: OVCAR-5 ovarian
NCI/ADR-RES ovarian = system: NCI/ADR-RES ovarian
NCI-H522 lung = system: NCI-H522 lung
DU-145 prostate = system: DU-145 prostate
NCI-H226 lung = system: NCI-H226 lung
M14 melanoma = system: M14 melanoma
KM12 colon = system: KM12 colon
CCRF-CEM leukemia = system: CCRF-CEM leukemia
MDA-MB-468 breast = system: MDA-MB-468 breast
SNB-75 CNS = system: SNB-75 CNS
HL-60(TB) leukemia = system: HL-60(TB) leukemia
OVCAR-8 ovarian = system: OVCAR-8 ovarian
MALME-3M melanoma = system: MALME-3M melanoma
IGROV1 ovarian = system: IGROV1 ovarian
NCI-H23 lung = system: NCI-H23 lung
SF-295 CNS = system: SF-295 CNS
RPMI-8226 leukemia = system: RPMI-8226 leukemia
MOLT-4 leukemia = system: MOLT-4 leukemia
CAKI-1 renal = system: CAKI-1 renal
T-47D breast = system: T-47D breast
SNB-19 CNS = system: SNB-19 CNS
HT29 colon = system: HT29 colon
HCC-2998 colon = system: HCC-2998 colon
OVCAR-4 ovarian = system: OVCAR-4 ovarian
SK-MEL-5 melanoma = system: SK-MEL-5 melanoma
HS 578T breast = system: HS 578T breast
TK-10 renal = system: TK-10 renal
BT-549 breast = system: BT-549 breast
UO-31 renal = system: UO-31 renal
SW-620 colon = system: SW-620 colon
HCT-15 colon = system: HCT-15 colon
NCI-H460 lung = system: NCI-H460 lung
A498 renal = system: A498 renal
UACC-257 melanoma = system: UACC-257 melanoma
RXF 393 renal = system: RXF 393 renal
SF-539 CNS = system: SF-539 CNS

Structure (SMILES): C[C@@H]1CN(c2ccc3ncc(C#Cc4cncc(C(=O)Nc5ccc(CN6CCN(C)CC6)c(C(F)(F)F)c5)c4)n3n2)C[C@@H](C)O1
- GI50 (EKVX NSCLC): 227 nM
- TGI (EKVX NSCLC): 654 nM
- GI50 (SK-MEL-28 melanoma): 520 nM
- TGI (SK-MEL-28 melanoma): 1230 nM
- GI50 (HOP-62 NSCLC): 318 nM
- TGI (HOP-62 NSCLC): 968 nM
- GI50 (SF-268 CNS): 299 nM
- TGI (SF-268 CNS): 1130 nM
- GI50 (SN12C renal): 143 nM
- TGI (SN12C renal): 647 nM
- GI50 (UACC-62 melanoma): 310 nM
- TGI (UACC-62 melanoma): 989 nM
- GI50 (U251 CNS): 362 nM
- TGI (U251 CNS): 1010 nM
- GI50 (HOP-92 NSCLC): 124 nM
- TGI (HOP-92 NSCLC): 496 nM
- GI50 (OVCAR-3 ovarian): 328 nM
- TGI (OVCAR-3 ovarian): 1130 nM
- GI50 (A549 NSCLC): 340 nM
- TGI (A549 NSCLC): 938 nM
- GI50 (ACHN renal): 242 nM
- TGI (ACHN renal): 680 nM
- GI50 (MDA-MB-231 breast): 59.5 nM
- TGI (MDA-MB-231 breast): 207 nM
- GI50 (MDA-MB-435): 281 nM
- TGI (MDA-MB-435): 833 nM
- GI50 (786-0 renal): 407 nM
- TGI (786-0 renal): 986 nM
- GI50 (PC-3 prostate): 507 nM
- TGI (PC-3 prostate): 1810 nM
- GI50 (SR leukemia): 499 nM
- TGI (SR leukemia): 10300 nM
- GI50 (K-562 leukemia): 33.6 nM
- TGI (K-562 leukemia): 2730 nM
- GI50 (COLO 205 colon): 316 nM
- TGI (COLO 205 colon): 719 nM
- GI50 (LOX IMVI melanoma): 222 nM
- TGI (LOX IMVI melanoma): 468 nM
- GI50 (MCF7 breast): 229 nM
- TGI (MCF7 breast): 679 nM
- GI50 (HCT-116 colon): 270 nM
- TGI (HCT-116 colon): 790 nM
- GI50 (SK-OV-3 ovarian): 510 nM
- TGI (SK-OV-3 ovarian): 1570 nM
- GI50 (OVCAR-5 ovarian): 363 nM
- TGI (OVCAR-5 ovarian): 922 nM
- GI50 (NCI/ADR-RES ovarian): 899 nM
- TGI (NCI/ADR-RES ovarian): 1850 nM
- GI50 (NCI-H522 lung): 261 nM
- TGI (NCI-H522 lung): 525 nM
- GI50 (DU-145 prostate): 332 nM
- TGI (DU-145 prostate): 923 nM
- GI50 (NCI-H226 lung): 87.9 nM
- TGI (NCI-H226 lung): 574 nM
- GI50 (M14 melanoma): 280 nM
- TGI (M14 melanoma): 771 nM
- GI50 (KM12 colon): 11.4 nM
- TGI (KM12 colon): 534 nM
- GI50 (CCRF-CEM leukemia): 475 nM
- TGI (CCRF-CEM leukemia): 1530 nM
- GI50 (MDA-MB-468 breast): 216 nM
- TGI (MDA-MB-468 breast): 452 nM
- GI50 (SNB-75 CNS): 61.6 nM
- TGI (SNB-75 CNS): 188 nM
- GI50 (HL-60(TB) leukemia): 421 nM
- TGI (HL-60(TB) leukemia): 1170 nM
- GI50 (OVCAR-8 ovarian): 366 nM
- TGI (OVCAR-8 ovarian): 1050 nM
- GI50 (MALME-3M melanoma): 276 nM
- TGI (MALME-3M melanoma): 826 nM
- GI50 (IGROV1 ovarian): 276 nM
- TGI (IGROV1 ovarian): 772 nM
- GI50 (NCI-H23 lung): 268 nM
- TGI (NCI-H23 lung): 617 nM
- GI50 (SF-295 CNS): 332 nM
- TGI (SF-295 CNS): 1010 nM
- GI50 (RPMI-8226 leukemia): 507 nM
- TGI (RPMI-8226 leukemia): 2030 nM
- GI50 (MOLT-4 leukemia): 297 nM
- TGI (MOLT-4 leukemia): 4090 nM
- GI50 (CAKI-1 renal): 1370 nM
- TGI (CAKI-1 renal): 3890 nM
- GI50 (T-47D breast): 754 nM
- TGI (T-47D breast): 2220 nM
- GI50 (SNB-19 CNS): 467 nM
- TGI (SNB-19 CNS): 1260 nM
- GI50 (HT29 colon): 311 nM
- TGI (HT29 colon): 979 nM
- GI50 (HCC-2998 colon): 426 nM
- TGI (HCC-2998 colon): 1010 nM
- GI50 (OVCAR-4 ovarian): 263 nM
- TGI (OVCAR-4 ovarian): 1240 nM
- GI50 (SK-MEL-5 melanoma): 673 nM
- TGI (SK-MEL-5 melanoma): 1370 nM
- GI50 (HS 578T breast): 166 nM
- TGI (HS 578T breast): 794 nM
- GI50 (TK-10 renal): 299 nM
- TGI (TK-10 renal): 727 nM
- GI50 (BT-549 breast): 349 nM
- TGI (BT-549 breast): 1200 nM
- GI50 (UO-31 renal): 128 nM
- TGI (UO-31 renal): 462 nM
- GI50 (SW-620 colon): 277 nM
- TGI (SW-620 colon): 768 nM
- GI50 (HCT-15 colon): 286 nM
- TGI (HCT-15 colon): 632 nM
- GI50 (NCI-H460 lung): 379 nM
- TGI (NCI-H460 lung): 1040 nM
- GI50 (A498 renal): 678 nM
- TGI (A498 renal): 1370 nM
- GI50 (UACC-257 melanoma): 737 nM
- TGI (UACC-257 melanoma): 3510 nM
- GI50 (RXF 393 renal): 187 nM
- TGI (RXF 393 renal): 432 nM
- GI50 (SF-539 CNS): 142 nM
- TGI (SF-539 CNS): 382 nM

Source: PubChem BioAssay (NCI)
